Laboratory results as given in US10231958B2, “Methods and compositions for enhancing chemotherapy” (THE BOARD OF REGENTS OF THE UNIVERSITY OF TEXAS SYSTEM, priority 2015, dated 2019).
“Also recorded” adds a separate entry of the source.

What was measured:
MEFs = test: Metabolomics of GSH metabolites in MEFs; format: cell-based, mouse; details: MMS 40 μg/mL
Protocol: (§1) The 2.4×10^6 Kc167 or 2×10^6 MEFs were seeded using complete growth medium on Day 0 in a T-175 cell culture flask and were allowed to grow for three days. After treatments with MMS (40 μg/mL), cells were harvested and centrifuged at 8 and 24 hours, and washed using ice-cold PBS. The cell numbers were adjusted to 90×10^6 (Kc167) or 24×10^6 (MEF) and provided as 100 μL of packed cell pellet for metabolic profiling. Metabolomic profiling and data analysis was provided through mView service performed by Metabolon Inc., Durham, N.C. Five biological replicates of each group were used for analysis at each time point. In addition, detailed changes in nucleotide pools were measured in a separate set of experiments. Nucleotide quantification and Metabolomics Pathway Enrichment Analyses were performed through MetaboAnalyst 2.0 (Xia et al., 2012, Nucleic Acids Res 40(Web Server issue), W127-33; Xia et al., 2009, Nucleic Acids Res 37(Web Server issue), W652-60).

Kc167 cells = test: Metabolomics of GSH metabolites in fly cells; format: cell-based, D. melanogaster; details: MMS 40 μg/mL
Protocol: as §1

MDA-MB231 cells = test: Extracellular matrix invasion assay (Boyden chamber); format: cell-based, human; details: CM from sorafenib or sorafenib plus MMS/4-HC vs CM from MMS or 4-HC alone
Protocol: (§2) Quantification of MMP1 and MMP3 content in culture medium was assessed using RayBio-MMP3 and RayBio-MMP1 Elisa Kit (RayBiotech, Inc); IL8 was analyzed by Human IL-8 Elisa kit (Pierce Biotechnology). The levels of prostaglandin E2 (PGE2) were determined using the Prostaglandin E2 EIA Kit Monoclonal (Cayman Chemical Company). Culture media were diluted to fit within the standard curves. For conditioned media (CM) preparation for invasion and in vitro angiogenesis experiments, 12-well plated cells were treated with MMS (or MMS plus inhibitors) for 8 h in the presence of 10% FBS, twice washed with HBSS, and incubated with 700 μL drug/serum-free fresh medium for additional 12 h. Thereafter, the conditioned fresh medium was collected and directly used for migration and invasion experiments in order to reduce freezing associated loss of activity.
The invasion potential of breast cancer cells was estimated using the QCM™ 24-Well Cell Invasion Assay Fluorimetric (Millipore). Serum starved cells were trypsinized, trypsin-inhibited, centrifuged, resuspended to 5000 cells/μL, and 50 μL of this suspension (250,000 cells) was seeded on 8 μm pore size inserts coated with extracellular matrix in serum-free conditions. Afterwards, 200 μL conditioned (CM) or fresh medium without serum was added to top chambers. The bottom chamber consisted of 500 μL of DMEM supplemented with 10% FBS as chemoattractant. Cells were allowed to migrate for 24 h at 37° C. under 5% CO2. Invaded cells were detached from the bottom side of the insert, lysed and incubated with CyQuant GR fluorescent Dye for 15 min. Fluorescence was read at Ex/Em=480/520 nm. Percentage of invading cells was compared to cell number standard curves.

human endothelial cells = test: In vitro angiogenesis (Angiophase kit, CD31); format: cell-based; details: CM from sorafenib treatments
Protocol: as §2
The Angiophase kit (MBL Inc.) was used to assess the angiogenic potential of conditioned media (CM) from breast cancer cells or the direct effect of pharmaceutical inhibitors (free-drug system) on vessel-like structures formation in vitro. With this kit, human endothelial cells are co-cultured in a specially designed medium to form threadlike tubule structures. These gradually join up to form a network of anastomosing tubules, which resemble the capillary bed found in the CAM assay. Kit-provided cryopreserved co-culture of human endothelial cells were plated and kept for 96 h (proliferative phase) without treatments. Afterwards, the cells were maintained in the presence of conditioned medium from alkylating agent treated cells or control medium for a total of 14 days (angiogenic/vasculogenic phase). Medium was changed each 2 days. At the end of treatments, the cells were fixed and immune-stained for CD31 (PECAM-1), following by incubation with secondary antibody conjugate. ELISA was developed using the soluble substrate p-nitrophenyl-phosphate (p-NPP) whose product was colorimetrically read at 405 nm. After ELISA assays, the wells were washed with dH2O and tubule staining was performed by incubating CD31-stained tubules with the substrate BCIP/NBT, which form insoluble precipitates. Tubules were counted and photographed for qualitative monitoring.

[1] = test system: MDA-MB231 xenograft implants; test: MDA-MB231 xenograft study; format: in vivo, mouse
Excerpt: The study was approved by the University of Texas Health Science Center at San Antonio Institutional Animal Care and Use Committee (IACUC) policy as outlined in protocol number 11024. The facility is operated in compliance with the Public Law 89-544 (Animal Welfare Act) and its amendments, Public Health Services Policy on Humane Care and Use of Laboratory Animals (PHS Policy) using the Guide for the Care and Use of Laboratory Animals (Guide) as the basis of operation. Selection of cyclophosphamide and sorafenib doses was based on previously published reports (Sun et al., 2010, J Int Med Res 38, 967-76; Wilhelm et al., 2004 Cancer Res 64, 7099-109). MDA-MB-231 cells were harvested by trypsinization, washed and re-suspended in serum-free medium. Thereafter, cells were mixed with matrigel (1:1), and approximately 5×10^6 cells were subcutaneously injected in the right flank of each mouse. When the average tumor volume reached about 100 mm^3, mice were randomized into groups of 8 animals each, and the following treatment protocol was implemented: Group 1 (control): 100 μL of saline (i.p.); Group 2: sorafenib (1 mg/kg; i.p.) for 9 days; Group 3: cyclophosphamide 0.1 g/kg on days 2, 4, 6 and 8; Group 4: Sorafenib+cyclophosphamide (combination of same above described regimens). All animals were sacrificed 5 days after the end of treatments (15th day of the treatment protocol). Body weight of mice was recorded weekly, and tumor size was measured thrice a week in two dimensions using a digital caliper. The tumor volume was calculated by the formula 0.5236 L1(L2)^2, where L1 is the long axis, and L2 is the short axis of the tumor. At the termination of the study, mice were euthanized; tumors were excised and a part was fixed in 10% phosphate-buffered formalin for H&E, Masson's staining and immunohistochemistry (IHC) analyses.

In the case of `COS(C)(=O)=O` [MMS, methyl-methanesulfonate], the “increase in methyl-GSH” value (MEFs) is reported as 100 fold and the “increase in methyl-GSH” value (Kc167 cells) is reported as 300 fold.

`CNC(=O)c1cc(Oc2ccc(NC(=O)Nc3ccc(Cl)c(C(F)(F)F)c3)cc2)ccn1` [sorafenib, 4-[4-[[4-chloro-3-(trifluoromethyl)phenyl]carbamoylamino]phenoxy]-N-methyl-pyridine-2-carboxamide] was tested, and the “invasion with CM from treated cells” value (MDA-MB231 cells) was “unable to invade Boyden Chambers”, the “angiogenesis with CM from treated cells” value (human endothelial cells) was “inhibition of angiogenesis” and the “tumor growth, single agent” value ([1]; sorafenib 1 mg/kg i.p. 9 days, cyclophosphamide 0.1 g/kg days 2, 4, 6, 8) was “significantly decrease tumor growth”. The “tumor growth, combination with cyclophosphamide” value ([1]; sorafenib 1 mg/kg i.p. plus cyclophosphamide 0.1 g/kg) was “synergize with cyclophosphamide”, the “tumor volume at which growth was stabilized” value ([1]; sorafenib alone, 7 days of treatment) was roughly 150 mm^3 and the “effect on cyclophosphamide-induced angiogenic response” value ([1]; sorafenib combined with cyclophosphamide) was “significant inhibition of cyclophosphamide-induced angiogenic response; also recorded: blocked cyclophosphamide-induced vessels formation”.
